Here are results for 22 compounds from paper PMC6009881, “New sulfurated derivatives of cinnamic acids and rosmaricine as inhibitors of STAT3 and NF-κB transcription factors” (Journal of Enzyme Inhibition and Medicinal Chemistry, 2017).

Where a name gives a salt, the structure may show the parent alone.

In one data set the target is STAT3-SH2 domain (Homo sapiens, UniProt P40763). The data set can be described thus: STAT AlphaScreen-based assay (STAT3). Type of data set: binding. The settings on record: for IC50: read-out: STAT3 IC50 ±SD; for inhibition at 30 µM: read-out: STAT3 % inhibition ± SD at 30 μM.
The target of another data set is T1, SH2-domain of STAT1 (Homo sapiens, UniProt P42224).
T1 sequence (P42224 1-750): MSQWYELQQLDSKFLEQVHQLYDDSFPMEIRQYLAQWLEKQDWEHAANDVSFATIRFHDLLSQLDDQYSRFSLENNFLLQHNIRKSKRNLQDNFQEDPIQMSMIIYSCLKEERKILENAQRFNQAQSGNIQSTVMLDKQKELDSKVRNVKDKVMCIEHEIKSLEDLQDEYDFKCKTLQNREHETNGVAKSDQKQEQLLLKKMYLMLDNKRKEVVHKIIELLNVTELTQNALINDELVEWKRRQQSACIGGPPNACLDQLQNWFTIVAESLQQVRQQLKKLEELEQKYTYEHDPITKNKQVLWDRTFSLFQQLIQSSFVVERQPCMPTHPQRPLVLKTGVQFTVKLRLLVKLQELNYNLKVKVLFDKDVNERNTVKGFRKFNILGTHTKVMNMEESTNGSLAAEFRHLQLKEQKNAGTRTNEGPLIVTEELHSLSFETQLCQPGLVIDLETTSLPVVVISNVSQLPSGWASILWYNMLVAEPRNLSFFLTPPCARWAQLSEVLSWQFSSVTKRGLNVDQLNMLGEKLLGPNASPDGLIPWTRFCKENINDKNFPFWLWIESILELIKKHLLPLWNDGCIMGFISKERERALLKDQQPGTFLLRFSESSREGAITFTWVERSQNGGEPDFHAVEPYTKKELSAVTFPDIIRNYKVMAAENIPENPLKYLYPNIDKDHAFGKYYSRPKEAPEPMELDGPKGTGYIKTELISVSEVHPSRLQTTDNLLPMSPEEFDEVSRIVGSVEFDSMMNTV
Description: STAT AlphaScreen-based assay (STAT1 selectivity). The format is binding. The following applies: for inhibition at 30 µM: read-out: STAT1 % inhibition ± SD at 30 μM, 30 μM; for IC50: read-out: STAT1 IC50 ±SD. The method, then: STAT3 inhibitory activity of the described compounds was tested by the AlphaScreen-based assay to evaluate the potential inhibition of the interaction between STAT3-SH2 domain and pTyr-containing peptides according to the previously reported procedure. For the most interesting compounds, selectivity tests versus STAT1 were performed.
The new sulfurated-drug hybrids, together with their parent compounds have been submitted to the AlphaScreen-based assay, to investigate their ability to bind STAT3 directly, through the evaluation of the inhibition of the binding of SH2-containing proteins to their correspondent phosphopeptides, the physiological ligands. […] Since AlphaScreen is a cell-free assay, not always there is a correspondence between the potency of STAT3 inhibition and cytotoxicity, probably due to not optimal physicochemical properties of the tested compounds, such as solubility and chemical stability in the culture medium and cell permeation.
Background: Alpha assays give light when donor and acceptor beads are brought close together.

The next data set has as its system HCT-116 cells. Description: MTT assay, cytotoxicity on HCT-116. Type of data set: cell-based, human. The settings on record: human, HCT-116 cells, MTT assay, 48 h; NA = not active up to 100 μM; read-out: Cytotoxicity (HCT-116) IC50 ±SD. The method, then:
Following the same protocol used for previous cytotoxicity assays by N. Ferri[55], cells were seeded in 48-well plate (40.000 cells/well) and, after 24 h, they were incubated with different concentrations of our compounds for 48 h.
The determination of the conversion of MTT (3-(4,5-dimethyl-2-thiazolyl)-2,5-diphenyl-2H-tetrazolium bromide) to formazan was determined by using a commercially available kit (Millipore, Billerica, MA), according to the manufacturer’s instructions.
Background: Tetrazolium assays rely on reduction of a dye to a coloured formazan, in cell work by metabolically active cells.

The subject of data set [1] is STAT3 reporter activity in HeLa cells. Description: STAT3 luciferase reporter gene assay. The following applies: Homo sapiens, 2 h pretreatment, oncostatin M 10 ng/ml 4 h, read-out: STAT3 reporter assay (HeLa) IC50 ±SD. Type of data set: cell-based. The method, then: STAT3 reporter HeLa stable cell lines (Signosis Inc, Santa Clara, CA) were incubated in a 96-well microplate for 24 h. Cells were pretreated with test compounds for 2 h, and 10 ng/ml (w/v) of oncostatin M were applied and incubated for 4 h. Cells were washed with medium not supplemented with phenol red, and Steady-Glo® reagent (Promega, Madison, WI) was applied. After 15 min incubation, the signals were detected by ARVO Light 1420 (PerkinElmer Life Sciences, Waltham, MA). The relative signal intensity was calculated in each well as the ratio for the mean signal of vehicle.

Chain of STAT3-SH2 domain (P40763 whole entry, the tested form may be a part): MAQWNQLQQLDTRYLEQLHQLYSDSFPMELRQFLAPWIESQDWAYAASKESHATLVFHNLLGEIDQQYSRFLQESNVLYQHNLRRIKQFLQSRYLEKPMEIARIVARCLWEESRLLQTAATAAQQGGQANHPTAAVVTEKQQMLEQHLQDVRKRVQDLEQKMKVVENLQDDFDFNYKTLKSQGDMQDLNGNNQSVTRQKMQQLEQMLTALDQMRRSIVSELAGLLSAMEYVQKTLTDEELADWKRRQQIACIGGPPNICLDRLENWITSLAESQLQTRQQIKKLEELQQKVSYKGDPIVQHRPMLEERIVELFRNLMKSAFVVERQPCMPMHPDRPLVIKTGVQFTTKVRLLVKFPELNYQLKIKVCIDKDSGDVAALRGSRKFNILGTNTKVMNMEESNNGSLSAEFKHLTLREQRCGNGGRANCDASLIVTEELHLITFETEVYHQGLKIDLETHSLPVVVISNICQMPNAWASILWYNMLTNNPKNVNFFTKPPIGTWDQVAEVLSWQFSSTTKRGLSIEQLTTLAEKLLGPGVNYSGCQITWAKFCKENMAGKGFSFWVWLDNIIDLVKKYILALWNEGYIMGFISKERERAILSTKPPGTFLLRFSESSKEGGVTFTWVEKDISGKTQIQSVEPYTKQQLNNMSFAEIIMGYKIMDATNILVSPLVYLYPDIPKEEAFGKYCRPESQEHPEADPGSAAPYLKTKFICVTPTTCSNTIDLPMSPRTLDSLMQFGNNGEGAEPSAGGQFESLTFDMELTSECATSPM

As usually defined, the IC50 is the concentration that gives 50% inhibition. By inhibition is commonly meant the relative decrease from the control value, in per cent. Regarding `C=CCSSCCOC(=O)/C=C/c1ccc(O)c(OC)c1` [Compound 17, (E)-2-(allyldisulfanyl)ethyl 3-(4-hydroxy-3-methoxyphenyl)acrylate], at STAT3-SH2 domain (AlphaScreen assay), the IC50 was determined as 7.8 ± 0.6 µM and the inhibition at 30 µM came out at 67.9 ± 0.8%. For the same compound, at SH2-domain of STAT1, the inhibition at 30 µM came out at 12 ± 4.7% and the half-inhibitory concentration (IC50) was > 30 µM.
Taken in the same sequence, the figures for `CS(=O)(=O)SCCNC(=O)/C=C/c1ccc(O)c(O)c1` [Compound 22, (E)-S-2-(3-(3,4-dihydroxyphenyl)acrylamido)ethyl methanesulfonothioate] were 0.9 ± 0.1 µM, 99.8 ± 0.1%, -17.8 ± 0.3% and > 30 µM.
Taken in the same sequence, the figures for `COc1cc(/C=C/C(=O)NCCSS(C)(=O)=O)ccc1O` [Compound 16, (E)-S-2-(3-(4-hydroxy-3-methoxyphenyl)acrylamido)ethyl methanesulfonothioate] were 1.8 ± 0.5 µM, 107.8 ± 0.1%, 4.1 ± 5.4% and > 30 µM.
One may read the melting point as the temperature of the solid-liquid transition. In the case of `CS(=O)(=O)SCCOC(=O)/C=C/c1ccc(Cl)c(Cl)c1` [Compound 26, (E)-2-(methylsulfonylthio)ethyl 3-(3,4-dichlorophenyl)acrylate], the melting point was in the range of 69.6 to 71.2 °C. Besides, at STAT3-SH2 domain (AlphaScreen assay), the IC50 was determined as 0.3 µM and the inhibition at 30 µM was 100 ± 0.1%. Moreover, at SH2-domain of STAT1, the inhibition at 30 µM came out at 104 ± 1.7% and the IC50 was 1.9 ± 0.2 µM.
With `COC(=O)CCCCSS(C)(=O)=O` [Compound 7, Methyl 5-((methylsulfonyl)thio)pentanoate], at STAT3-SH2 domain (AlphaScreen assay), the IC50 came to 1.9 ± 0.2 µM and the inhibition at 30 µM came out at 99.6 ± 0.1%. Besides, at SH2-domain of STAT1, the inhibition at 30 µM worked out at 70.8 ± 1.2% and the IC50 turned out to be 20.1 ± 0.4 µM.
In the case of `COC(=O)/C=C/c1ccc(O)c(OC)c1` [Compound 13], at STAT3-SH2 domain (AlphaScreen assay), the IC50 is > 30 µM and the inhibition at 30 µM was 2.1 ± 2.3%.
With `COC(=O)/C=C/c1ccc(O)c(O)c1` [Compound 20, (E)-methyl 3-(3,4-dihydroxyphenyl)acrylate], at STAT3-SH2 domain (AlphaScreen assay), the IC50 is > 30 µM and the inhibition at 30 µM turned out to be 12.8 ± 1.1%. Also, the IC50 at 48 h in the data set with HCT-116 cells came to 90.8 µM.
With `CS(=O)(=O)SCCCCO` [Compound 2, S-4-hydroxybutyl methanesulfonothioate], on STAT3-SH2 domain (AlphaScreen assay), the 50% inhibitory concentration (IC50) worked out at 4.4 ± 0.3 µM and the inhibition at 30 µM was 88.4 ± 0.5%. Moreover, at SH2-domain of STAT1, the inhibition at 30 µM stood at 73.7 ± 1.4% and the IC50 was determined as 8.6 ± 0.7 µM.
For the compound `CS(=O)(=O)SCCO` [Compound 1, S-2-hydroxyethyl methanesulfonothioate], at STAT3-SH2 domain (AlphaScreen assay), the IC50 was > 30 µM and the inhibition at 30 µM worked out at 11.6%.
In turn, `CS(=O)(=O)SCCOC(=O)C=Cc1ccccc1` [Compound 25, 2-(Methylsulfonylthio)ethyl cinnamate] returned a melting point of 76.8 to 78.5 °C. Moreover, at STAT3-SH2 domain (AlphaScreen assay), the IC50 is 0.5 µM and the inhibition at 30 µM was found to be 100%. Moreover, the IC50 in data set [1] amounted to 72.5 ± 4.4 µM. In addition, on SH2-domain of STAT1, the inhibition at 30 µM was 100.3 ± 0.2% and the IC50 came to 3.6 ± 0.4 µM. The IC50 at 48 h in the data set with HCT-116 cells amounted to 95.2 ± 8.9 µM.
Compound `CS(=O)(=O)CCCCC(=O)O` [Compound 8, 5-(Methylsulfonyl)pentanoic acid] showed a melting point of 111.3 to 112.8 °C. Further, on STAT3-SH2 domain (AlphaScreen assay), the “STAT3 IC50 ±SD” value was “loss of activity on STAT3”, the IC50 is > 30 µM and the inhibition at 30 µM worked out at 3.8 ± 2.8%.
As to `CS(=O)(=O)SCCCCC(=O)O` [Compound 6, 5-(methanesulfonylthio)pentanoic acid], at STAT3-SH2 domain (AlphaScreen assay), the IC50 was determined as 4.7 ± 1.1 µM and the inhibition at 30 µM came out at 72.5 ± 4.8%. At SH2-domain of STAT1, the inhibition at 3 µM amounted to 8.6% and the IC50 was > 3 µM.
On to `O=C(O)c1ccc(-c2cssc2=S)cc1` [Compound 11, 4-(3-thioxo-3H-1,2-dithiol-4-yl)benzoic acid], for which, at STAT3-SH2 domain (AlphaScreen assay), the IC50 was > 100 µM and the inhibition at 30 µM is -1.2 ± 6%. Further, the IC50 in data set [1] was > 100 µM.
`COc1ccc(/C=C/C(=O)OCCSS(C)(=O)=O)cc1OC` [Compound 27, (E)-2-((methylsulfonyl)thio)ethyl 3-(3,4-dimethoxyphenyl)acrylate] gave a melting point of 99.8 to 102.7 °C. For the same compound, on STAT3-SH2 domain (AlphaScreen assay), the IC50 turned out to be 0.3 µM and the inhibition at 30 µM amounted to 99.7 ± 0.1%. Further, the “fold more selective for STAT3 versus STAT1” value at STAT3-SH2 domain (in comparison to 15 and 26) is listed as 10 fold. For the same compound, on SH2-domain of STAT1, the inhibition at 30 µM was found to be 68.9 ± 10.2% and the IC50 was found to be 20.9 ± 4.9 µM.
As for `C=CCSSCCC(=O)O` [Compound 9, 3-(allyldisulfanyl)propionic acid], at STAT3-SH2 domain (AlphaScreen assay), the IC50 is > 30 µM and the inhibition at 30 µM was 43.9 ± 3.6%.
`C=CCSSCCO` [Compound 4, 2-(Allyldisulfanyl)ethanol]: on STAT3-SH2 domain (AlphaScreen assay), the IC50 was found to be 22.2 ± 3 µM and the inhibition at 30 µM came out at 55.7 ± 2.5%. Further, on SH2-domain of STAT1, the inhibition at 30 µM worked out at 11.7 ± 6% and the IC50 was > 30 µM.
`C=CCSSCCC(=O)OC` [Compound 10, Methyl 3-(allyldisulfanyl)propanoate]: on STAT3-SH2 domain (AlphaScreen assay), the IC50 was > 30 µM and the inhibition at 30 µM was found to be 42 ± 4.7%. For the same compound, on SH2-domain of STAT1, the inhibition at 30 µM turned out to be 11.2% and the IC50 is > 30 µM.
`CS(=O)(=O)SCCN` [Compound 3, S-2-aminoethyl methanesulfonothioate hydrobromide]: the inhibition at 3 µM at STAT3-SH2 domain (AlphaScreen assay, 3 μM) was determined as 46.8%; on SH2-domain of STAT1 it was 14.5%. In addition, the values for the IC50 on STAT3-SH2 domain (AlphaScreen assay) and at SH2-domain of STAT1 were > 30 µM and > 3 µM, respectively. Further, on STAT3-SH2 domain (AlphaScreen assay), the inhibition at 30 µM was -10.2%.
As to `COCCOCOc1ccc(/C=C/C(=O)NCCSS(C)(=O)=O)cc1OCOCCOC` [Compound 29, (E)-S-2-(3-(3,4-bis((2-methoxyethoxy)methoxy)phenyl)acrylamido)ethyl methanesulfonothioate], the melting point was 62.3 to 64.6 °C. For the same compound, at STAT3-SH2 domain (AlphaScreen assay), the IC50 was determined as 1.1 µM and the inhibition at 30 µM came to 100.1 ± 0.1%. For the same compound, on SH2-domain of STAT1, the inhibition at 30 µM amounted to 63.3 ± 0.5% and the IC50 is 19.5 ± 0.3 µM.
Consider `COc1cc(/C=C/C(=O)Oc2ccc(-c3cc(=S)ss3)cc2)ccc1O` [Compound 18, (E)-4-(3-thioxo-3H-1,2-dithiol-5-yl)phenyl 3-(4-hydroxy-3-methoxyphenyl)acrylate], for which, on STAT3-SH2 domain (AlphaScreen assay), the IC50 was 28.5 ± 0.7 µM and the inhibition at 30 µM came out at 51.3 ± 0.7%. On SH2-domain of STAT1, the inhibition at 30 µM stood at 44.2 ± 1.9% and the IC50 is > 30 µM.
The like results for `COCCOCOc1ccc(/C=C/C(=O)OCCSS(C)(=O)=O)cc1OCOCCOC` [Compound 28, (E)-2-(methylsulfonylthio)ethyl 3-(3,4-bis((2-methoxyethoxy)methoxy)phenyl)acrylate] were, in that order, 0.6 ± 0.1 µM, 100 ± 0.1%, 98.4 ± 0.9% and 6.3 ± 0.5 µM.
As for `COc1cc(/C=C/C(=O)O)ccc1O` [Compound 12, ferulic acid, reference compound], on STAT3-SH2 domain (AlphaScreen assay), the IC50 was > 30 µM and the inhibition at 30 µM was determined as 0.2 ± 8.2%.
